According to article PMC7955952 (Pharmacology Research & Perspectives, 2021):

Target: Focal adhesion kinase (FAK) (Homo sapiens, UniProt Q05397)
Test: biochemical

Chain of Focal adhesion kinase (FAK) (Q05397 393-698): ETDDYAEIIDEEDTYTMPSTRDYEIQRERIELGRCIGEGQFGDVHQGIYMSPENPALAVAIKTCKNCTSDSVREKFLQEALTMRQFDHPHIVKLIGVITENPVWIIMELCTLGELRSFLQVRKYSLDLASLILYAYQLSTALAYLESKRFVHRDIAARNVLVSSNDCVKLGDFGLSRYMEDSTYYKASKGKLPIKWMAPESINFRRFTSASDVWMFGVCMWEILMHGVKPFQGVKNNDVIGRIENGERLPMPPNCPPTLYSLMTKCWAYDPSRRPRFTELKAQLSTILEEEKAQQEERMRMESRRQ

Compound: CS(=O)(=O)c1cccc(CNc2nc(Nc3ccc4c(c3)CCC(=O)N4)ncc2C(F)(F)F)c1 [PF573228, 6‐[[4‐[(3‐methylsulfonylphenyl)methylamino]‐5‐(trifluoromethyl)pyrimidin‐2‐yl]amino]‐3,4‐dihydro‐1H‐quinolin‐2‐one]
- IC50: 9 ± 0.03 nM
